Laboratory results: paper PMC7956382 (Molecules, 2021)

Tested on: muscle nAChR-expressing cells
Type: cell-based, mouse

Substance: α-bungarotoxin [α-Bgt]
- Inhibition of calcium transients: No transients were recorded
